Marks after values point to notes of the source that are not given here.
Columns and labels:
[1] = tested on: Wistar rats subjected to ligature of bile duct; assay: Portal and systemic pressure after a week treatment in rats with bile duct ligature; format: in vivo, rat; settings: for Portal pressure After a week treatment: bile duct ligated Wistar rats, 0.04 mmol/kg twice a day intragastric for one week
Description: Twenty one Wistar rats were divided in three groups of 7 animals each and then subjected to ligature of bile duct. Within three weeks following the ligature, the animals were left on rest. As a consequence of the bile duct ligature, the animals developed dysfunctions of the hepatic and portal venous circulation. At the end of the third week, each group underwent the following weekly treatment protocol: • Group 1: control group treated with carrier (1% w/v water suspension of carboxymethylcellulose); • Group 2: treated with NO-urso at a dose of 28 mg/kg (0.04 mmol/kg), twice a day; • Group 3: treated with ursodeoxycholic acid (urso in table) at a dose of 15 mg/kg (0,04 mmol/kg), twice a day. The rested compounds have been administered by intragastric cannula in 1% water suspension of carboxymethylcellulose. At the end of the treatment (fourth week) the animals were anaesthetized with urethane and then systemic pressure (MAP) and portal pressure (PP) were monitored by catheterisation both of the carotid and portal vein. The animal liver was then continuously perfused with Krebs solution (40 ml/min) balanced with O2/CO2 (95%-5%) using a peristaltic pump (Gilson) In this way the pharmacological effect of both tested compounds has been evaluated.

[2] = tested on: rat liver perfused with norepinephrine solution; assay: Perfused rat liver: intrahepatic constriction induced by norepinephrine, infusion of tested compound; format: in vivo; settings: for Portal pressure % increase after NE infusion: liver perfused with norepinephrine 1 μM, then single infusion of 1 mM solution of tested compound
Experimental: At the end of the treatment (fourth week) the animals were anaesthetized with urethane and then systemic pressure (MAP) and portal pressure (PP) were monitored by catheterisation both of the carotid and portal vein. The animal liver was then continuously perfused with Krebs solution (40 ml/min) balanced with O2/CO2 (95%-5%) using a peristaltic pump (Gilson) In this way the pharmacological effect of both tested compounds has been evaluated. The rat liver was then firstly perfused with norepinephrine solution (1 μM) in order to induce an intrahepatic circulation constriction. Afterwards, in groups 2 and 3 a single infusion with a 1 mM solution of each of the tested compounds was carried out and portal pressure variations have been monitored.

[3] = tested on: Wistar rats subjected to ligature of bile duct; assay: Hepatic fibrosis evaluated by an immunocytochemical method in bile duct ligated rats; format: in vivo, rat; settings: a week treatment in bile duct ligated rats
Description: Twenty one Wistar rats were divided in three groups of 7 animals each and then subjected to ligature of bile duct. Within three weeks following the ligature, the animals were left on rest. As a consequence of the bile duct ligature, the animals developed dysfunctions of the hepatic and portal venous circulation. At the end of the third week, each group underwent the following weekly treatment protocol: • Group 1: control group treated with carrier (1% w/v water suspension of carboxymethylcellulose); • Group 2: treated with NO-urso at a dose of 28 mg/kg (0.04 mmol/kg), twice a day; • Group 3: treated with ursodeoxycholic acid (urso in table) at a dose of 15 mg/kg (0,04 mmol/kg), twice a day.

SMILES | portal pressure reduction ([1]; after the week treatment, perfusion rate 40 ml/min, with respect to controls) [mmHg] | Portal pressure After a week treatment ([1]; perfusion rate 40 ml/min) | influence on systemic hemodynamic parameters (systemic pressure, cardiac frequency) ([1]; rat, in vivo) | increase of intrahepatic resistance induced by norepinephrine ([2]; 500% increase determined by NE infusion, NO-urso p<0.001) | Portal pressure % increase after NE infusion [2] [%] | influence on hepatic fibrosis [3] | influence on hepatic fibrosis ([3]; listed as No-urso) | influence on systemic hemodynamic parameters (systemic pressure, cardiac frequency) ([1]; a week treatment in bile duct ligated rats) | portal pressure increase with respect to controls ([1]; after the week treatment, perfusion rate 40 ml/min) [mmHg] | Systemic hemodynamic parameters: Systemic pressure (MAP) ([1]; bile duct ligated rats after a week treatment, 0.04 mmol/kg twice a day, carotid catheterisation, in mmHg (unit assumed)) | Systemic hemodynamic parameters: Cardiac frequency ([1]; bile duct ligated rats after a week treatment, 0.04 mmol/kg twice a day, in beats/min (unit assumed))
COc1cc(/C=C/C(=O)OCCCCO[N+](=O)[O-])ccc1OC(=O)CC[C@@H](C)[C@H]1CC[C@H]2[C@@H]3[C@@H](O)C[C@@H]4C[C@H](O)CC[C@]4(C)[C@H]3CC[C@]12C [NO-urso, (3α,5β,7β)-3,7-dihydroxycholan-24-oic Acid 2-methoxy-4[3-[4-(nitrooxy)butoxy]-3-oxo-1-propenyl]phenyl Ester] | 3 | 14* mmHg | do not influence | significantly reduced | 180 | does not modify | do not influence | – | – | – | –
C[C@H](CCC(=O)O)[C@H]1CC[C@H]2[C@@H]3[C@@H](O)C[C@@H]4C[C@H](O)CC[C@]4(C)[C@H]3CC[C@]12C [Urso, ursodeoxycholic acid] | – | 19 mmHg | – | – | 400 | – | – | do not influence | 2 | 95 ± 12 | 372 ± 41
